In the test the test system is HCV 1b-Con1 replicon. The test is described as follows: HCV 1b-Con1 replicon assay in the presence of 5% FBS. In kind it is cell-based. Conditions: Hepatitis C virus. On the technique in general: A replicon is a self-replicating genome or part of one, used to study replication in cells.
For the compound `COC(=O)N[C@H](C(=O)N1CCC[C@H]1c1nc2cc([C@H]3CC[C@H](c4ccc5[nH]c([C@@H]6CCCN6C(=O)[C@@H](NC(=O)OC)C(C)C)nc5c4)N3c3cc(F)c(N4CCC(C(C)(C)C)CC4)c(F)c3)ccc2[nH]1)C(C)C` [Example 5.9, methyl {(2S)-1-[(2S)-2-{5-[(2R,5R)-1-[4-(4-tert-butylpiperidin-1-yl)-3,5-difluorophenyl]-5-{2-[(2S)-1-{(2S)-2-[(methoxycarbonyl)amino]-3-methylbutanoyl}pyrrolidin-2-yl]-1H-benzimidazol-5-yl}pyrrolidin-2-yl]-1H-benzimidazol-2-yl}pyrrolidin-1-yl]-3-methyl-1-oxobutan-2-yl}carbamate], the EC50 (commonly the midpoint of the concentration-response curve) was less than 0.1 nM.

Consider `COC(=O)N[C@H](C(=O)N1CCC[C@H]1c1nc2cc([C@@H]3CC[C@@H](c4ccc5[nH]c([C@@H]6CCCN6C(=O)[C@@H](NC(=O)OC)[C@@H](C)OC)nc5c4)N3c3ccc(N4CCCCC4)c(F)c3)ccc2[nH]1)[C@@H](C)OC` [Example 3.16, methyl {(2S,3R)-1-[(2S)-2-{5-[(2S,5S)-1-[3-fluoro-4-(piperidin-1-yl)phenyl]-5-(2-{(2S)-1-[N-(methoxycarbonyl)-O-methyl-L-threonyl]pyrrolidin-2-yl}-1H-benzimidazol-5-yl)pyrrolidin-2-yl]-1H-benzimidazol-2-yl}pyrrolidin-1-yl]-3-methoxy-1-oxobutan-2-yl}carbamate], for which the concentration for a half-maximal effect (EC50) lay in the range of 0.1 to 1 nM.

With `COC(=O)N[C@H](C(=O)N1CCCC1c1nc2cc([C@H]3CC[C@H](c4ccc5[nH]c([C@@H]6CCCN6)nc5c4)N3c3ccc(C(C)(C)C)cc3)ccc2[nH]1)C(C)C` (stereo partly drawn) [Example 4.20, methyl [(2S)-1-(2-{5-[(2R,5R)-1-(4-tert-butylphenyl)-5-{2-[(2S)-pyrrolidin-2-yl]-1H-benzimidazol-5-yl}pyrrolidin-2-yl]-1H-benzimidazol-2-yl}pyrrolidin-1-yl)-3-methyl-1-oxobutan-2-yl]carbamate], the half-maximal effective concentration (EC50) is less than 0.1 nM.

Regarding `COC(=O)N[C@H](C(=O)N1CCC[C@H]1c1nc2cc([C@H]3CC[C@H](c4ccc5[nH]c([C@@H]6CCCN6C(=O)[C@@H](NC(=O)OC)C(C)C)nc5c4)N3c3cc(F)c(N4CCC(C(C)C)CC4)c(F)c3)ccc2[nH]1)C(C)C` [Example 4.22, methyl {(2S)-1-[(2S)-2-{5-[(2R,5R)-1-{3,5-difluoro-4-[4-(propan-2-yl)piperidin-1-yl]phenyl}-5-{2-[(2S)-1-{(2S)-2-[(methoxycarbonyl)amino]-3-methylbutanoyl}pyrrolidin-2-yl]-1H-benzimidazol-5-yl}pyrrolidin-2-yl]-1H-benzimidazol-2-yl}pyrrolidin-1-yl]-3-methyl-1-oxobutan-2-yl}carbamate], the EC50 is less than 0.1 nM.

Regarding `COC(=O)N[C@H](C(=O)N1CCC[C@H]1c1nc2ccc([C@H]3CC[C@H](c4ccc5nc([C@@H]6CCCN6C(=O)[C@@H](NC(=O)OC)C(C)C)[nH]c5c4)N3c3cc(F)c(N4CCC(CCCc5ccccc5)CC4)c(F)c3)cc2[nH]1)C(C)C` [Example 2.10, methyl {(2S)-1-[(2S)-2-{5-[(2R,5R)-1-{3,5-difluoro-4-[4-(3-phenylpropyl)piperidin-1-yl]phenyl}-5-{2-[(2S)-1-{(2S)-2-[(methoxycarbonyl)amino]-3-methylbutanoyl}pyrrolidin-2-yl]-1H-benzimidazol-5-yl}pyrrolidin-2-yl]-1H-benzimidazol-2-yl}pyrrolidin-1-yl]-3-methyl-1-oxobutan-2-yl}carbamate], the EC50 is less than 0.1 nM.

Consider `COC(=O)N[C@H](C(=O)N1CCC[C@H]1c1nc2cc([C@H]3CC[C@H](c4ccc5[nH]c([C@@H]6CCCN6C(=O)[C@@H](NC(=O)OC)C(C)C)nc5c4)N3c3ccc(-c4ccccn4)cc3)ccc2[nH]1)C(C)C` [Example 3.1, methyl {(2S)-1-[(2S)-2-(5-{(2R,5R)-5-{2-[(2S)-1-{(2S)-2-[(methoxycarbonyl)amino]-3-methylbutanoyl}pyrrolidin-2-yl]-1H-benzimidazol-5-yl}-1-[4-(pyridin-2-yl)phenyl]pyrrolidin-2-yl}-1H-benzimidazol-2-yl)pyrrolidin-1-yl]-3-methyl-1-oxobutan-2-yl}carbamate], for which the EC50 is less than 0.1 nM.

Consider `C=C1C[C@@H](c2nc3cc([C@H]4CC[C@H](c5ccc6[nH]c([C@@H]7CC(=C)CN7C(=O)[C@@H](NC(=O)OC)C(C)C)nc6c5)N4c4ccc(C(C)(C)C)cc4)ccc3[nH]2)N(C(=O)[C@@H](NC(=O)OC)C(C)C)C1` [Example 3.26, methyl {(2S)-1-[(2S)-2-{5-[(2R,5R)-1-(4-tert-butylphenyl)-5-{2-[(2S)-1-{(2S)-2-[(methoxycarbonyl)amino]-3-methylbutanoyl}-4-methylidenepyrrolidin-2-yl]-1H-benzimidazol-5-yl}pyrrolidin-2-yl]-1H-benzimidazol-2-yl}-4-methylidenepyrrolidin-1-yl]-3-methyl-1-oxobutan-2-yl}carbamate], for which the half-maximal effective concentration (EC50) was less than 0.1 nM.

Regarding `COC(=O)N[C@H](C(=O)N1CCC[C@H]1c1nc2cc([C@H]3CC[C@H](c4cc5nc([C@@H]6CCCN6C(=O)[C@@H](NC(=O)OC)[C@@H](C)OC)[nH]c5cc4F)N3c3cc(F)c(N4CCN(c5ccc(C(F)(F)F)cc5)CC4)c(F)c3)c(F)cc2[nH]1)[C@@H](C)OC` [Example 6.15, methyl {(2S,3R)-1-[(2S)-2-{5-[(2R,5R)-1-(3,5-difluoro-4-{4-[4-(trifluoromethyl)phenyl]piperazin-1-yl}phenyl)-5-(6-fluoro-2-{(2S)-1-[N-(methoxycarbonyl)-O-methyl-L-threonyl]pyrrolidin-2-yl}-1H-benzimidazol-5-yl)pyrrolidin-2-yl]-6-fluoro-1H-benzimidazol-2-yl}pyrrolidin-1-yl]-3-methoxy-1-oxobutan-2-yl}carbamate], the EC50 was less than 0.1 nM.

Turning to `COC(=O)N[C@H](C(=O)N1CCC[C@H]1c1nc2cc([C@H]3CC[C@H](c4cc5nc([C@@H]6CCCN6C(=O)[C@@H](NC(=O)OC)C(C)C)[nH]c5cc4F)N3c3cc(F)c(N4CCCCC4)c(F)c3)c(F)cc2[nH]1)C(C)C` [Example 6.10, methyl {(2S)-1-[(2S)-2-{5-[(2R,5R)-1-[3,5-difluoro-4-(piperidin-1-yl)phenyl]-5-{6-fluoro-2-[(2S)-1-{(2S)-2-[(methoxycarbonyl)amino]-3-methylbutanoyl}pyrrolidin-2-yl]-1H-benzimidazol-5-yl}pyrrolidin-2-yl]-6-fluoro-1H-benzimidazol-2-yl}pyrrolidin-1-yl]-3-methyl-1-oxobutan-2-yl}carbamate], the EC50 is less than 0.1 nM.

As for `COC(=O)N[C@H](C(=O)N1CCC[C@H]1c1nc2cc([C@H]3CC[C@H](c4cc5nc([C@@H]6CCCN6C(=O)[C@@H](NC(=O)OC)C6CCCC6)[nH]c5cc4F)N3c3cc(F)c(N4CCCCC4)c(F)c3)c(F)cc2[nH]1)C1CCCC1` [Example 3.39, dimethyl ({(2R,5R)-1-[3,5-difluoro-4-(piperidin-1-yl)phenyl]pyrrolidine-2,5-diyl}bis{(6-fluoro-1H-benzimidazole-5,2-diyl)(2S)pyrrolidine-2,1-diyl[(1S)-1-cyclopentyl-2-oxoethane-2,1-diyl]})biscarbamate], the EC50 was less than 0.1 nM.

Turning to `COC(=O)N[C@H](C(=O)N1CCC[C@H]1c1nc2cc([C@H]3CC[C@@H](c4cc5nc([C@@H]6CCCN6C(=O)[C@@H](NC(=O)OC)C(C)C)[nH]c5cc4F)N3c3cnc(N4CCC(c5ccccc5)CC4)nc3)c(F)cc2[nH]1)C(C)C` [Example 3.46, methyl {(2S)-1-[(2S)-2-(6-fluoro-5-{(2R,5S)-5-{6-fluoro-2-[(2S)-1-{(2S)-2-[(methoxycarbonyl)amino]-3-methylbutanoyl}pyrrolidin-2-yl]-1H-benzimidazol-5-yl}-1-[2-(4-phenylpiperidin-1-yl)pyrimidin-5-yl]pyrrolidin-2-yl}-1H-benzimidazol-2-yl)pyrrolidin-1-yl]-3-methyl-1-oxobutan-2-yl}carbamate], the EC50 is less than 0.1 nM.

On to `COC(=O)N[C@H](C(=O)N1CCC[C@H]1c1nc2cc([C@H]3CC[C@H](c4ccc5[nH]c([C@@H]6CCCN6C(=O)[C@@H](NC(=O)OC)C(C)C)nc5c4)N3c3cc(F)c(N4CCC(c5ccc(F)c(F)c5)CC4)c(F)c3)ccc2[nH]1)C(C)C` [Example 3.44, methyl {(2S)-1-[(2S)-2-{5-[(2R,5R)-1-{4-[4-(3,4-difluorophenyl)piperidin-1-yl]-3,5-difluorophenyl}-5-{2-[(2S)-1-{(2S)-2-[(methoxycarbonyl)amino]-3-methylbutanoyl}pyrrolidin-2-yl]-1H-benzimidazol-5-yl}pyrrolidin-2-yl]-1H-benzimidazol-2-yl}pyrrolidin-1-yl]-3-methyl-1-oxobutan-2-yl}carbamate], for which the EC50 was less than 0.1 nM.

On to `COC(=O)N[C@H](C(=O)N1CCC[C@H]1c1nc2cc([C@H]3CC[C@H](c4ccc5[nH]c([C@@H]6CCCN6C(=O)[C@@H](NC(=O)OC)C(C)C)nc5c4)N3c3cc(F)c(N4CCC(c5cc(F)cc(F)c5)CC4)c(F)c3)ccc2[nH]1)C(C)C` [Example 3.45, methyl {(2S)-1-[(2S)-2-{5-[(2R,5R)-1-{4-[4-(3,5-difluorophenyl)piperidin-1-yl]-3,5-difluorophenyl}-5-{2-[(2S)-1-{(2S)-2-[(methoxycarbonyl)amino]-3-methylbutanoyl}pyrrolidin-2-yl]-1H-benzimidazol-5-yl}pyrrolidin-2-yl]-1H-benzimidazol-2-yl}pyrrolidin-1-yl]-3-methyl-1-oxobutan-2-yl}carbamate], for which the concentration giving a half-maximal response (EC50) is less than 0.1 nM.

As to `COC(=O)N[C@H](C(=O)N1[C@H](c2nc3cc([C@H]4CC[C@H](c5cc6nc([C@@H]7C[C@@H]8CCC[C@@H]8N7C(=O)[C@@H](NC(=O)OC)C7CCOCC7)[nH]c6cc5F)N4c4cc(F)c(N5CCCCC5)c(F)c4)c(F)cc3[nH]2)C[C@@H]2CCC[C@@H]21)C1CCOCC1` [Example 3.41, dimethyl ({(2R,5R)-1-[3,5-difluoro-4-(piperidin-1-yl)phenyl]pyrrolidine-2,5-diyl}bis{(6-fluoro-1H-benzimidazole-5,2-diyl)(2S,3aS,6aS)hexahydrocyclopenta[b]pyrrole-2,1(2H)-diyl[(1S)-2-oxo-1-(tetrahydro-2H-pyran-4-yl)ethane-2,1-diyl]})biscarbamate], the EC50 is less than 0.1 nM.

Source of the values: patent US20120220562A1, “Anti-Viral Compounds” (ABBOTT LABAORATORIES, priority 2011, published 2012).
